Series [1] deals with T1, Na^+-NQR (Vibrio cholerae serotype O1, UniProt Q9KPS2).
T1 construct: being placed in its native membrane; endogenous in cells; sub-bacterial membrane vesicles made by French press
Description: Na+-NQR activity (dNADH oxidation) in sub-bacterial V. cholerae vesicles. The series is classed as biochemical.

For series [2], the target named is Na^+-NQR. The conditions noted are these: cited from earlier work.
For series [3], the system named is HeLa cell line. Description: Cell toxicity assay, HeLa cells. The series is classed as cell-based, human. The method, then:
(§1) Cell Toxicity Assay was performed as follows. HeLa, HEK293 and primary VSM cells were seeded at 5×10^3 cells/well in 96-well plates and incubated with Korormicin, PEG-2 or homoserine lactones in DMEM containing 1% fetal bovine serum (FBS; Invitrogen Corp.). After 48 hours, the number of living cells was determined by a colorimetric enzyme assay, based on a cytoplasmic enzyme activity present in viable cells.

The test system of series [4] is primary Vascular Smooth Muscle cells. Description: Cell toxicity / proliferation assay, primary vascular smooth muscle cells. It counts as cell-based, human. The method, then:
as §1
Cells were seeded at 5×10^3 cells/well in 96-well plates and incubated with C. trachomatis in DMEM containing 1% fetal bovine serum (FBS; Invitrogen Corp.). After 48 hours, the number of living cells was determined by a colorimetric enzyme assay (CellTiter 96 Cell Proliferation Assay; Promega Corporation, Madison, WI) based on a cytoplasmic enzyme activity present in viable cells. (Cory et al. Use of an aqueous soluble tetrazolium/formazan assay for cell growth assays in culture. Cancer Commun. 1991; 3:207-212). The absorbance of a formazan product in tissue culture media was measured at 500 nm using a microplate reader.

The test system of series [5] is Chlamydia trachomatis. Description: C. trachomatis infection of HeLa cells (chlamydial inclusions, immunocytochemistry). It counts as cell-based. The conditions noted are these: for IC50: Chlamydia trachomatis, HeLa. The method, then:
Chlamydia trachomatis (C. trachomatis) propagation and treatment were carried out as follows. C. trachomatis was propagated in HeLa cells. The titer of C. trachomatis was determined in cyclohexamide-treated HeLa cells, and concentrations used were expressed as inclusion forming units (IFU) per mL.
Assessment of the level of infection was determined as follows. HeLa cells were seeded on glass coverslips in 24-well plates at 3×10^4 cells/well and inoculated with C. trachomatis and then treated with antibiotic (or other compounds of interest). After 48 hours, the infected cells were fixed with 100% methanol and then incubated with anti-Chlamydia monoclonal antibody. Inclusion bodies were visualized by staining with FITC-conjugated secondary antibody and DAPI as counterstaining. The samples were examined by a fluorescence microscopy. Number of inclusions was calculated per 100 cells.
Assessment of antichlamydial activity of Korormicin (Scheme shown in FIG. 1) and PEG-2 (Scheme shown in FIG. 2) were performed as follows. Cells were infected with C. trachomatis and treated with different concentrations of antibiotic of choice. After 48 h of C. trachomatis was collected (P1) and used to infect fresh cells. Subsequent collections of C. trachomatis were used to obtain P2, P3, P4 and P5 stocks of C. trachomatis. Dilution of C. trachomatis used to infect cells after treatment with PEG-2 had to be minimized in order to visualize inclusions. Last passage collection of C. trachomatis (P5) of Korormicin treatment and all collected of passages of C. trachomatis treated with PEG-2 were used to establish infectivity of treated Chlamydia (Scheme shown in FIG. 3).
For MIC50 (Minimal Concentration of the antibiotic that inhibits formation of chlamydial inclusions on 50%) determination HeLa cells were grown in 24-well or 96 well plates overnight prior to chlamydial inoculation. Elementary bodies were applied to the cells in small volume of SPG (0.22 M sucrose, 8.6 mM Na2HPO4, 3.8 mM KH2PO4, 5 mM glutamic acid, 0.2 μm-filtered, pH 7.4) and after 2 hours of incubation unattached elementary bodies were removed and infected cells were treated with different concentration of antibiotics in Dulbecco's modified Eagle's medium (DMEM, Invitrogen) with 5% fetal bovine serum (FBS, Invitrogen) in the presence of cycloheximide (1.0 μg/ml). After 42 h inclusions were visualized by immunocytochemistry.
To determent chlamydicidal effect of Korormicin (Scheme 1) and PEG-2 (Scheme 2) Hela cells were infected with C. trachomatis and treated with different concentrations of antibiotics. After 48 h of C. trachomatis was collected (P1) and used to infect fresh cells. Subsequent collections of C. trachomatis were used to obtain P2, P3, P4 and P5 stocks of C. trachomatis. Dilution of C. trachomatis used to infect cells after treatment with PEG-2 had to be minimized in order to visualize inclusions. (See Scheme 2 below). Last passage collection of C. trachomatis (P5) of Korormicin treatment and all collected of passages of C. trachomatis treated with PEG-2 were used to establish infectivity of treated C. trachomatis. Minimal chlamydicidal concentration (MCC2) for Korormicin, PEG-2 and PEG-2S was calculated after 2 passages of infection with treatment and reflect inhibition of infection for more than 90%. In all experiments inclusions were visualized by immunocytochemistry.
Cells were seeded on glass coverslips in 24-well plates (2-4×10^4 cells/well) or on glass-bottom 96 well plates (10^4 cells/well), and after overnight inoculated with C. trachomatis. After 42 hours, the infected cells were fixed with 90% acetone (or 100% methanol in case of 96 well plates) and then incubated with anti-Chlamydia antibody (Thermo Fisher Scientific). Alexa Fluor 488-conjugated anti-rabbit IgG (Molecular Probes) was used as secondary antibody. DAPI staining solution (300 nM) was added to the coverslips to identify nuclei. […]

Series [6] in a line: physchem. The conditions noted are these: organic solvent or mixture. The series is classed as physicochemical.
Setting [7] is: cell culture experimental model, read-out: IC50(Chl), half-maximal inhibition of the proliferation of Chlamydia trachomatis.

The values that follow come from patent US12029716B2, “Derivatives of korormicin useful as antibiotics” (Viotika Life Sciences Inc., priority 2015, dated 2024).

Several values for one entry are separate records, joined by “and”; a condition that tells them apart may be missing. Equal entries are not always repeated. Where two headings read alike, the source gives them in different places. Some results are limits rather than exact numbers.

What is called Ki is the dissociation constant of the complex between target and ligand, obtained from inhibition or displacement. As usually defined, the solubility is how much of the substance goes into solution per volume.

As for `CCCCCCCc1cc(O)c2ccccc2[n+]1[O-]` [HQNO, 2-n-heptyl-4-hydroxyquinoline N-oxide], the IC50 in series [1] amounted to 130 nM. The inhibitory constant (Ki) in series [2] (read-out: Ki for Na+-NQR) was 300 nM.
As for `CCCCCCCCCC(=O)CC(=O)N[C@H]1CCOC1=O` [N-3-oxo-dodecanoyl-L-Homoserine lactone], the “Cytotoxicity on HeLa cell line” value in series [3] (12.5 μM), in series [3] (25 μM), in series [3] (50 μM) and in series [3] (100 μM) was “yes” throughout. Further, in series [3] (HeLa), the “toxicity to human cells (in words)” value is “highly toxic”.
Regarding `CCCCCCCC[C@H]1O[C@H]1C/C=C/C=C\[C@H](O)CC(=O)NC1=C[C@](C)(CC)OC1=O` [Korormicin, (3R,4Z,6E)-N-[(5S)-5-Ethyl-5-methyl-2-oxo-2,5-dihydro-3-furanyl]-3-hydroxy-8-[(2S,3R)-3-octyl-2-oxiranyl]-4,6-octadienamide], the “lowering of the cell titer” value in series [4] (VSMC proliferation, 5 to 15 μM) is around 10%. The “toxicity to primary cells (in words)” value in series [4] (primary Vascular Smooth Muscle cells) is on record as “toxic”. Moreover, the “efficacy against C. trachomatis infection (in words)” value in series [5] is “effective”. Further, in series [5] (5 consecutive treatments, 15 μM), the “number of inclusions, of control” value is listed as 4.8%. The IC50 was 8.28 µg/mL in series [5] (read-out: MIC501, Minimal Inhibitory Concentration after the treatment, first treatment); 18000 nM in series [5] (read-out: MIC501, Minimal Inhibitory Concentration after the treatment, first treatment, 50% inhibition of inclusion formation); 10 µM and 4.6 µg/mL in series [5] (read-out: MIC502, Minimal Inhibitory Concentration after the second treatment, second treatment). For the same molecule, in series [5] (cell culture models), the “concentration effective against C. trachomatis” value lay within 10 to 20 µM. For the same molecule, the “number of chlamydial inclusions, of control” value in series [5] (five consecutive treatments, 20 μM) was “less than 2%”. Also, the Ki in series [2] (isolated Na+-NQR, listed as korormicin, read-out: inhibitor constant (Ki) of quinone reduction by Na+-NQR) was around 0.08 nM; in series [2] (isolated Na+-NQR, read-out: inhibitor constant (Ki) of quinone reduction by Na+-NQR) it was 0.082 nM; in series [2] (preparations of isolated enzyme, read-out: Ki), around 0.08 nM.
Turning to `CCCCCCCCCC(=O)N[C@H]1CCOC1=O` [N-decanoyl-L-Homoserine lactone], the “Cytotoxicity on HeLa cell line” value in series [3] (12.5 μM), in series [3] (25 μM), in series [3] (50 μM) and in series [3] (100 μM) was “no” in each case. Further, the Anti-Chlamydial effect entry in series [5] (12.5 μM), in series [5] (25 μM), in series [5] (50 μM) and in series [5] (100 μM) was “no” in each case.
Regarding `CC[C@@]1(C)C=C(NC(=O)C[C@@H](O)/C=C\C=C\CCCCCCN(C)C(=O)OC(C)(C)C)C(=O)O1` [PEG-6(Boc)], the IC50 in series [5] (setting [7]) was determined as 960 nM. Besides, the solubility in series [6] was above 50 mM.
In the same order, the values of `CCCCCCC/C=C/C=C\CCC(=O)NC1=C[C@](C)(CC)OC1=O` [PEG-14] are 1200 nM and above 50 mM.
Consider `CCCC(=O)N[C@H]1CCOC1=O` [N-butyryl-L-Homoserine lactone], for which the “Cytotoxicity on HeLa cell line” value in series [3] (12.5 μM), in series [3] (25 μM), in series [3] (50 μM) and in series [3] (100 μM) was “no” throughout. For the same molecule, the Anti-Chlamydial effect entry in series [5] (12.5 μM) was “no”; in series [5] (25 μM) it was “no”; in series [5] (50 μM) it was “No”; in series [5] (100 μM), “no”.
As to `CCCCCCCCCCC[C@H](O)CC(=O)NC1=C[C@](C)(CC)OC1=O` [PEG-11], the IC50 in series [5] (setting [7]) was 630 nM. Further, the solubility in series [6] was above 50 mM.
With `CCCCCC(=O)N[C@H]1CCOC1=O` [N-hexanoyl-L-Homoserine lactone], the “Cytotoxicity on HeLa cell line” value in series [3] (12.5 μM), in series [3] (25 μM), in series [3] (50 μM) and in series [3] (100 μM) was “no” each time. The Anti-Chlamydial effect entry is given as “no” in series [5] (12.5 μM), “no” in series [5] (25 μM), “No” in series [5] (50 μM) and “no” in series [5] (100 μM).
As to `CC[C@@]1(C)C=C(NC(=O)C[C@@H](O)/C=C\I)C(=O)O1` [PEG-10], the IC50 in series [5] (setting [7]) is 670 nM. The solubility in series [6] was above 50 mM.
